# Measurements from ChEMBL document CHEMBL4152386, “Discovery of a Novel Inhaled PI3Kδ Inhibitor for the Treatment of Respiratory Diseases” (J Med Chem, 2018).
# pIC50: −log10 of the molar value.
# Target: T1, Phosphatidylinositol 4,5-bisphosphate 3-kinase catalytic subunit delta isoform (Mus musculus, UniProt O35904)
# T1 sequence (O35904 whole entry): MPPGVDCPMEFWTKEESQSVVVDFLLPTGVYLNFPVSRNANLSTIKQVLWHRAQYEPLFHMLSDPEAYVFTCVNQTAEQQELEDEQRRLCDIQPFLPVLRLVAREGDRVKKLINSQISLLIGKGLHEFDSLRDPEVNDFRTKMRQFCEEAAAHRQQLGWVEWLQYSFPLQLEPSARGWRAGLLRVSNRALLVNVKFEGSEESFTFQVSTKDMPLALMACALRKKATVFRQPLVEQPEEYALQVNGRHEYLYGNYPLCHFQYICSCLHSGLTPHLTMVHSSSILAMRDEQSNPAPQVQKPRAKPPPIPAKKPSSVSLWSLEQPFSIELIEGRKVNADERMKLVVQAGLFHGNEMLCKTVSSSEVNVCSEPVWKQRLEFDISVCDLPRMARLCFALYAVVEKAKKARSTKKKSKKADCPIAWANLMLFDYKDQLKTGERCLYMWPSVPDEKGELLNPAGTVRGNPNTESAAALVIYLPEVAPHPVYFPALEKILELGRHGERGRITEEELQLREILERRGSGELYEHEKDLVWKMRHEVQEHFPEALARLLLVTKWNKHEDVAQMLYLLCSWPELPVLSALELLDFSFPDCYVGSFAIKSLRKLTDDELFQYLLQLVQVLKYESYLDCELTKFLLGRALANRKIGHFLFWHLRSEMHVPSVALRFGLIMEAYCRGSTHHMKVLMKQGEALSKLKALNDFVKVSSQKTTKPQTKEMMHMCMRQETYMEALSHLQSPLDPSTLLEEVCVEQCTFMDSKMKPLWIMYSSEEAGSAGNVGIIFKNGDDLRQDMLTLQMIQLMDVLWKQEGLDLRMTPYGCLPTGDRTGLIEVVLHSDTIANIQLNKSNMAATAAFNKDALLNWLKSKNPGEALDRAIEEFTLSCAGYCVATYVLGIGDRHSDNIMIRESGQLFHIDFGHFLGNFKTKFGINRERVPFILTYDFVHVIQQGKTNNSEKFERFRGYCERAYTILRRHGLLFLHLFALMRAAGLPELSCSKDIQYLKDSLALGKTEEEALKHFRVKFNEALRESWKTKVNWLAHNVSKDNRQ
# Assay: Inhibition of mouse ABD-truncated p110delta catalytic subunit (unknown origin) expressed in Sf9 cells using diC8-PIP2 substrate incubated for 1 hr by fluorescence polarization assay
structure (smiles),measurement,value
Cc1ccccc1-n1c(CN2CNc3c(N)ncnc32)nc2cccc(C)c2c1=O,pIC50,6.89
